Data as given in patent publication US11124785B2, “Rothia subtilisins, S8A family proteases, as therapeutic enzymes for application in gluten intolerance disorders” (TRUSTEES OF BOSTON UNIVERSITY, priority 2016, dated 2021).

B1: subtilisin A: subtilisin A from Bacillus licheniformis (Sigma) (protein, listed as Bacillus licheniformis)
chain: MMRKKSFWLGMLTAFMLVFTMAFSDSASAAQPAKNVEKDYIVGFKSGVKTASVKKDIIKESGGKVDKQFRIINAAKAKLDKEALKEVKNDPDVAYVEEDHVAHALAQTVPYGIPLIKADKVQAQGFKGANVKVAVLDTGIQASHPDLNVVGGASFVAGEAYNTDGNGHGTHVAGTVAALDNTTGVLGVAPSVSLYAVKVLNSSGSGTYSGIVSGIEWATTNGMDVINMSLGGPSGSTAMKQAVDNAYARGVVVVAAAGNSGSSGNTNTIGYPAKYDSVIAVGAVDSNSNRASFSSVGAELEVMAPGAGVYSTYPTSTYATLNGTSMASPHVAGAAALILSKHPNLSASQVRNRLSSTATYLGSSFYYGKGLINVEAAAQ

Experiments:
Z-QQP-pNA = assay: Hydrolysis of paranitroanilide-derivatized substrate Z-QQP-pNA; format: biochemical; conditions: substrate 200 μM, pH 8.0 (data not shown)
Protocol: (§1) Hydrolysis of paranitroanilide-derivatized substrates—Paranitroanilide (pNA)-derivatized tripeptide substrates were chemically synthesized at >90% purity (21st Century Biochemicals, Marlborough, Mass.). The substrates obtained were Z-YPQ-pNA, Z-QQP-pNA, Z-LPY-pNA, Z-PFP-pNA, Z-PPF-pNA, where Z=benzyloxycarbonyl, Y=tyrosine, P=proline, Q=glutamine, L=leucine, and F=phenylalanine Suc-AAPF-pNA (SEQ ID NO: 4) was obtained from Sigma, where Suc=N-succinyl and A=alanine. The peptides were dissolved in 75-100% DMSO at 10 mM, and were used at a final concentration of 200 μM in 50 mM TrisHCl pH 8.0. Purified Rothia enzyme or subtilisin A from Bacillus licheniformis (Sigma) were tested at final concentrations of 1 μg/ml. Some experiments were conducted in the presence of inhibitors 4-(2-Aminoethyl) benzenesulfonyl fluoride (AEBSF), Aprotinin, E-64, EDTA, phenylmethanesulfonyl fluoride (PMSF) and Eglin C, which were tested at final concentrations of 10 mM, 0.08 mM, 0.1 mM, 1.5 mM, 1 mM, and 0.06-1.2 μM, respectively. Enzymes were preincubated with the inhibitors for 20 min before adding Suc-AAPF-pNA (SEQ ID NO: 4). Substrate hydrolysis was monitored for 10 h at 405 nm using a Genios microtiter plate reader (Tecan, Männedorf, Switzerland) in the kinetic mode at 37° C.

Z-LPY-pNA = assay: Hydrolysis of paranitroanilide-derivatized substrate Z-LPY-pNA; format: biochemical; conditions: five-fold increased enzyme concentrations (5 μg/ml) and longer incubation times
Protocol: FIG. 4A and FIG. 4B are representative graphs of the hydrolysis of the substrates: Suc-AAPF-pNA (SEQ ID NO: 4), Z-YPQ-pNA, and Z-LPY-pNA, each at 200 μM, by Rmep and subtilisin A, respectively, each at 1 μg/ml.
FIG. 4C show a representative graph of the hydrolysis of the substrate, LPY, by Rmep and subtilisin A at 5 μg/ml and extended incubation times.
as §1, with “Some experiments were conducted in the presence of inhibitors 4-(2-Aminoethyl) benzenesulfonyl fluoride (AEBSF), Aprotinin, E-64, EDTA, phenylmethanesulfonyl fluoride (PMSF) and Eglin C, which were tested at final concentrations of 10 mM, 0.08 mM, 0.1 mM, 1.5 mM, 1 mM, and 0.06-1.2 μM, respectively. Enzymes were preincubated with the inhibitors for 20 min before adding Suc-AAPF-pNA (SEQ ID NO: 4).” left out

[1] = test system: α-gliadin derived 33-mer peptide; assay: Degradation of the 33-mer peptide (RP-HPLC); format: biochemical; conditions: 33-mer 250 μg/ml, enzyme 57 μg/ml
Protocol: FIG. 8D is a representative chromatogram of the RP-HPLC analysis of the degradation of the gliadin-derived 33-mer (250 μg/ml) incubated for 0, 15, 30 and 120 min with NattoK 57 μg/ml).
(§2) Degradation of mixed gliadins and the 33-mer peptide—Mixed gliadins were obtained from Sigma. A synthetic highly immunogenic α-gliadin derived 33-mer peptide (26) was synthesized at a purity of >90% (21st Century Biochemicals). Mixed gliadins or the 33-mer peptide (each at final concentration 250 μg/ml) were incubated with Rmep or subtilisin A (each at 57 μg/ml) in 50 mM TrisHCl, pH 8.0. After t=0, 15 min, 30 min, and 2 h, 100 μl sample aliquots were removed and boiled. Gliadin degradation was assessed by 4-12% SDS-PAGE followed by Coomassie staining, and 33-mer degradation was determined by RP-HPLC.
Reversed-phase high performance liquid chromatography (RP-HPLC)—Separation of the 33-mer peptide and its fragments was achieved by RP-HPLC, using buffer A (0.1% trifluoroacetic acid) and buffer B (0.1% trifluoroacetic acid in 80% acetonitrile) at a gradient of 0-55% buffer B over 75 min time interval. The equipment used was an HPLC Model 715 (Gilson, Middleton, Wis.) and a C-18 column (TSK-GEL […], ODS-120T, TOSOHaas, Montgomeryville, Pa.) (22, 25).

[2] = test system: R5 epitopes (QQPFP and related pentapeptides) in mixed gliadins; assay: R5 ELISA, gluten epitope elimination in gliadin digests; format: biochemical; conditions: gliadins 250 μg/ml, enzyme 57 μg/ml
Protocol: FIG. 8E and FIG. 8F show the assessment of the survival of epitopes in the gliadin-NattoK degradation mixture employing the R5 ELISA (FIG. 8E) or G12 ELISA (FIG. 8F) assays. Epitope abolishment in Mixed gliadins (250 μg/ml) were incubated with NattoK (57 μg/ml) for 0, 15, 30 and 120 min and then assayed by the R5 ELISA or G12 ELISA.
R5 and G12 ELISA assays—Gluten epitope elimination in the gliadin-Rmep and gliadin-subtilisin A digests was assessed using two sandwich ELISA assays employing the R5 monoclonal antibody (RIDASCREEN Gliadin, R-Biopharm, Darmstadt, Germany) or the G12 monoclonal antibody (AgraQuant® ELISA Gluten G12, Romer labs, Union, Mo.). To prevent high background values, the R5 plate wells were blocked with 1% skim milk in PBS prior to incubation with the samples. The assays were performed according to the manufacturers' instructions and as described (21, 24).
To further investigate this, the time courses of degradation of mixed gliadins and the highly immunogenic 33-mer α-gliadin peptide were determined. Furthermore, epitope elimination was monitored by two ELISA assays employing the R5 antibody recognizing QQPFP (SEQ ID NO: 40) and related pentapeptides (27, 28) and the G12 antibody recognizing QPQLPY (SEQ ID NO: 22) contained in the 33-mer peptide (29, 30). Data obtained with Rmep are shown in FIG. 5, and with subtilisin A in FIG. 6.

mixed gliadins = assay: Degradation of mixed gliadins (SDS-PAGE); format: biochemical, wheat; conditions: gliadins 250 μg/ml, enzyme 57 μg/ml
Protocol: FIG. 5A is a representative SDS-PAGE gel of non-digested gliadins (control) and Rmep-treated gliadins. Gliadins (250 μg/ml) in 50 mM Tris/HCl pH 8.0 were incubated with Rmep at 57 μg/ml. After 0, 15 min, 30 min and 2 h incubation 100 μl aliquots were removed, boiled and analyzed by SDS-PAGE and stained with COOMASSIE Brilliant Blue. The bold arrow (left) points to the position of the major band in the gliadin preparation; the thin arrow (right) to the 125 kDa band in the Rmep preparation, and the dotted arrows (right) to the gliadin degradation fragments.
FIG. 6A is a representative SDS-PAGE gel of non-digested gliadins (control) and subtilisin A-treated gliadins. Gliadins (250 μg/ml) in 50 mM Tris/HCl pH 8.0 were incubated with subtilisin A at 57 μg/ml. Experiments were conducted as described in the legend of FIG. 5 with subtilisin A instead of Rmep.
FIG. 8A is a representative SDS-PAGE gel of non-digested gliadins (control) and NattoK-treated gliadins. Mixed gliadins (G, 250 μg/ml) were incubated with NattoK (57 μg/ml) for 0, 15, 30 and 120 min. Left four lanes: controls without enzyme or gliadins, respectively, each at t=0 and 120 min. Arrow points to the major components in the gliadin mixture represented by α and γ-gliadins containing most of the immunogenic epitopes.
as §2

Row | Molecule | hydrolysis of Z-QQP-pNA (Z-QQP-pNA) | hydrolysis of Z-LPY-pNA (Z-LPY-pNA) | incubation time within which 33-mer peptide degradation was completed ([1]; pH 8.0) | R5 epitopes eliminated after 15 min ([2]; 15 min) | R5 epitope elimination (reduction in antibody binding) at t=0 [2] | incubation time within which mixed gliadins were degraded (mixed gliadins; 50 mM TrisHCl pH 8.0) | 33-mer peptide degradation after 2 h of incubation ([1]; 2 h) | R5 epitope elimination within 15 min of incubation ([2]; 15 min) | degradation of mixed gliadins in the t=0 sample (mixed gliadins; pH 8.0, t=0)
1 | Rmep: DEAE pooled fraction F2 of R. mucilaginosa ATCC 25296 extract with highest gluten-degrading enzyme activity; contains subtilisins C6R5V9_9MICC and C6R5W1_9MICC | not hydrolyzed | could be demonstrated | ≤ 30 min | virtually all | 46% | ≤ 15 min |  |  | 
2 | B1 | not hydrolyzed | could be demonstrated |  |  | 90% |  | 74% | 100% | near complete degradation
